# The source made the active and inactive calls. The calls are words filed in the database; no cut-off is given here.
# Key:
# [1] = biological target: ALK tyrosine kinase receptor (Homo sapiens, UniProt Q9UM73, E1167A); experiment: Inhibition of ALK E1167A mutant (unknown origin) expressed in Escherichia coli BL21 (DE3)
# [2] = biological target: T1, Receptor-interacting serine/threonine-protein kinase 1 (Homo sapiens) (UniProt Q13546); experiment: Inhibition of RIPK1 (unknown origin) at 1 uM
# T1 sequence (whole entry): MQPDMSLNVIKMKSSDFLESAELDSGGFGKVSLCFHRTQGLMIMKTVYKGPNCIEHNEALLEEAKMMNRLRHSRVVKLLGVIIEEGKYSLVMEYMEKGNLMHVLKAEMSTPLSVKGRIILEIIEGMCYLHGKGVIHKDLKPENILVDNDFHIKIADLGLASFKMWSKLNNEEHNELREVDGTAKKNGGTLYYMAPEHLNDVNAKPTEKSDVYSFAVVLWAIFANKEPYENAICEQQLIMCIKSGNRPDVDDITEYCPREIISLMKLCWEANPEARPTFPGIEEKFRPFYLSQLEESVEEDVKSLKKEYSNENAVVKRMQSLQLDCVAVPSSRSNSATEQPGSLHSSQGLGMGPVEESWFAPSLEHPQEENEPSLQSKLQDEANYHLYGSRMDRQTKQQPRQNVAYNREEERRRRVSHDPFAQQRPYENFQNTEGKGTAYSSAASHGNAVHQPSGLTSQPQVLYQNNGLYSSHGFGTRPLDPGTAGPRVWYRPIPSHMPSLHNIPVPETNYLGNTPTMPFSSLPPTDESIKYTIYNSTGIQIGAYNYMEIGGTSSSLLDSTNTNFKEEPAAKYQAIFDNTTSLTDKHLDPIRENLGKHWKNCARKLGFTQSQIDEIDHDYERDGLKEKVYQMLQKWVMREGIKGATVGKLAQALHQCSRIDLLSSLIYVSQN
# [3] = biological target: ALK tyrosine kinase receptor (Homo sapiens, UniProt Q9UM73); experiment: Inhibition of ALK (unknown origin) at 1 uM
# ALK tyrosine kinase receptor (Homo sapiens, UniProt Q9UM73), sequence (Q9UM73 19-1620 limits assumed): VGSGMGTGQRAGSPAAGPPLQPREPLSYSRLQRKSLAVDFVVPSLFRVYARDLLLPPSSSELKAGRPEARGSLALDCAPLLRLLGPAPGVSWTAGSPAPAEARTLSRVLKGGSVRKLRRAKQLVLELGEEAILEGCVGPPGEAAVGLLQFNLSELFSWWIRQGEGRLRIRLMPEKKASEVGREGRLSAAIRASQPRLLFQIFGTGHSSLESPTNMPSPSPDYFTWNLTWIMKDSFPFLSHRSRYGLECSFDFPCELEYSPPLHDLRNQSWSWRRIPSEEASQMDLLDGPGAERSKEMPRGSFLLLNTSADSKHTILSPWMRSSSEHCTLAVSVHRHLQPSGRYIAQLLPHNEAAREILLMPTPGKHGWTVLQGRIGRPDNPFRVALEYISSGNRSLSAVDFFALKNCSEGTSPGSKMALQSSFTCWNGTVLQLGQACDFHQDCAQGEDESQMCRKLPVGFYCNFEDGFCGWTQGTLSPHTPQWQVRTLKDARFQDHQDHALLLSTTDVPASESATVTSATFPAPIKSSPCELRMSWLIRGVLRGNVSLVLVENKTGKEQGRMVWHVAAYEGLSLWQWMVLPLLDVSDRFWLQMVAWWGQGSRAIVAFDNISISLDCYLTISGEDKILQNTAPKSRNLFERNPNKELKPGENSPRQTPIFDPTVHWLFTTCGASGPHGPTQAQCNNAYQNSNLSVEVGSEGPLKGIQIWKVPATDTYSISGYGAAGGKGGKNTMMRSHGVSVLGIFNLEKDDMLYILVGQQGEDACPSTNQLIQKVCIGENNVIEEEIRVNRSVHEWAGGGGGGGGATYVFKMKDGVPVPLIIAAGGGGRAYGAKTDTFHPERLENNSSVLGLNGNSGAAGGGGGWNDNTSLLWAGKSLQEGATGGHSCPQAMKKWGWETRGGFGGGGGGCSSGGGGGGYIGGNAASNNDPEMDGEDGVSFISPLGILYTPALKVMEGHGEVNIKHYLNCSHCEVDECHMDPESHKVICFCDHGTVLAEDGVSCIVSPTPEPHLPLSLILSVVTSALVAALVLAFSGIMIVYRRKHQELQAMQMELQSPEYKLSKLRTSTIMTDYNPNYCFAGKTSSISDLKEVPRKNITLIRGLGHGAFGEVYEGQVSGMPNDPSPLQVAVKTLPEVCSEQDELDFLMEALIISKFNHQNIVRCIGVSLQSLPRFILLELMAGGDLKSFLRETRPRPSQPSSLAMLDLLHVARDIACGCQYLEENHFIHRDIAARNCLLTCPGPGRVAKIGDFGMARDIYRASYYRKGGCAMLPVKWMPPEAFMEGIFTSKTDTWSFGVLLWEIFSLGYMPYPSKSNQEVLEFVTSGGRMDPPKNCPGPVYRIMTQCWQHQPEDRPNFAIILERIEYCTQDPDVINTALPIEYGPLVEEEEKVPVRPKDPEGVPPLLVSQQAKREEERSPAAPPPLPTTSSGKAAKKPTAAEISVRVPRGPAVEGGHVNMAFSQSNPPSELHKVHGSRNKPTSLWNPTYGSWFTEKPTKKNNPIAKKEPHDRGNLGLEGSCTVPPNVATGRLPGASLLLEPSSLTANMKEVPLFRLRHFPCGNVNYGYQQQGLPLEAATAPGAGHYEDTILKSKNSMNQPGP
# [4] = system: BV-2; experiment: Anti-necroptosis activity in mouse BV-2 cells at 10 uM preincubated with LPS for 11 hrs followed by compound addition for 1 hr and exposed to zVAD-fmk for another 24 hrs by Cellcounting-Lite 2.0 luminescent cell viability assay; format: functional, cell-based; details: time 25.0 hrs
# [5] = system: BV-2; experiment: Anti-inflammatory activity against LPS/zVAD treated mouse BV-2 cells assessed as decrease in TNFalpha release at 100 nM by ELISA; format: functional, cell-based
# [6] = biological target: Receptor-interacting serine/threonine-protein kinase 1 (Mus musculus) (UniProt Q60855); experiment: Inhibition of RIPK1 activation in mouse BV-2 cells by Western blotting analysis; format: cell-based; details: dose 4-100 nM
# [7] = biological target: Mitogen-activated protein kinase kinase kinase kinase 4 (Mus musculus) (UniProt P97820); experiment: Inhibition of MAP4K4 activation in mouse BV-2 cells by Western blotting analysis; format: cell-based; details: dose 4-100 nM
# Mitogen-activated protein kinase kinase kinase kinase 4 (Mus musculus), sequence (P97820 whole entry): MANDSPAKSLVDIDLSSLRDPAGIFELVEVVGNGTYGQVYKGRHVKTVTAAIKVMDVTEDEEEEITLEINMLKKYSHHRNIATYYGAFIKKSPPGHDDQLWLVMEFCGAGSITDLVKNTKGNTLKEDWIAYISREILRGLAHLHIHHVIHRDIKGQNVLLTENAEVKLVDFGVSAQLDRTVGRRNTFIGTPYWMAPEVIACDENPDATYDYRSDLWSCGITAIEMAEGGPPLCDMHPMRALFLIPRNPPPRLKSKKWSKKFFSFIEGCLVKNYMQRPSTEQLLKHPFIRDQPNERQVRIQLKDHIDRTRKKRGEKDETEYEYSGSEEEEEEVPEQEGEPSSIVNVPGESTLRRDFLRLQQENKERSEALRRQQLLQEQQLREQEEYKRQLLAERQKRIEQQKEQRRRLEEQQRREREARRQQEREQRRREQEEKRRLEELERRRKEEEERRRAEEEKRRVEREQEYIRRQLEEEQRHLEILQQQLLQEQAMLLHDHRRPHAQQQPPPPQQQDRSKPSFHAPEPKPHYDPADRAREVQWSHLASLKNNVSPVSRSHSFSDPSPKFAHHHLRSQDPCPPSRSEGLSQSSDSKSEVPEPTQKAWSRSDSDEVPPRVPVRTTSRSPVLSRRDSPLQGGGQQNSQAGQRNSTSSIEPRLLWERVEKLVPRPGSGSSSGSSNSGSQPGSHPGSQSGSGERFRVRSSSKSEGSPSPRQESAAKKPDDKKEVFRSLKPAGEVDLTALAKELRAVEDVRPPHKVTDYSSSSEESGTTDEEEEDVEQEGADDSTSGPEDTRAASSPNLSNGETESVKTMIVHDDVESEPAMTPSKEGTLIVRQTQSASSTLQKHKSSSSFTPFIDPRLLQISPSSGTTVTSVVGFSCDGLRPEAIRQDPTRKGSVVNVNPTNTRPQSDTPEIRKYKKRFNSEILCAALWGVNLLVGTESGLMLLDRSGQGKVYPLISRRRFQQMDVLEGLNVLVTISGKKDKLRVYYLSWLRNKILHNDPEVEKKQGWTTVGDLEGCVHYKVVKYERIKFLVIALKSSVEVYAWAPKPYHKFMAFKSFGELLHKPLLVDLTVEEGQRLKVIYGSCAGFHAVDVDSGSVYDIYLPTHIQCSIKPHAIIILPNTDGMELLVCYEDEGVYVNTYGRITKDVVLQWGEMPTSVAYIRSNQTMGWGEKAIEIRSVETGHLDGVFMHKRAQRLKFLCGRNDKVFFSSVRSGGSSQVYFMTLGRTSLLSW
# [8] = system: Microglia; experiment: Anti-necroptosis activity in LPS/zVAD stimulated mouse primary microglia transfected with flag-tagged RIPK1 plasmid assessed as protection of microglia cells at 100 nM; format: functional, cell-based
# [9] = Anti-necroptosis activity in LPS/zVAD stimulated mouse primary microglia assessed as protection of microglia cells at 100 nM; format: functional
# [10] = system: Microglia; experiment: Anti-necroptosis activity in LPS/zVAD stimulated mouse primary microglia transfected with Myc-tagged ALK plasmid assessed as protection of microglia cells at 100 nM; format: functional, cell-based
# [11] = system: Microglia; experiment: Anti-necroptosis activity in LPS/zVAD stimulated mouse primary microglia overexpressed with RIPK1 assessed as reversal of mitochondrial swelling by TEM analysis; format: functional, cell-based
# [12] = system: Microglia; experiment: Anti-necroptosis activity in LPS/zVAD stimulated mouse primary microglia overexpressed with MAP4K4 assessed as reversal of translucent cytoplasm by TEM analysis; format: functional, cell-based
# [13] = system: Microglia; experiment: Anti-necroptosis activity in LPS/zVAD stimulated mouse primary microglia overexpressed with MAP4K4 assessed as reversal of severe membrane disruption by TEM analysis; format: functional, cell-based
# [14] = system: Microglia; experiment: Anti-necroptosis activity in LPS/zVAD stimulated mouse primary microglia overexpressed with ALK assessed as reversal of mitochondrial swelling by TEM analysis; format: functional, cell-based
# [15] = biological target: Cytochrome P450 1A2 (Homo sapiens, UniProt P05177); experiment: Inhibition of CYP1A2 (unknown origin) using phenacetin as substrate incubated for 10 mins in presence of NADPH by LC-MS/MS analysis; format: ADME
# Cytochrome P450 1A2, sequence (P05177 whole entry): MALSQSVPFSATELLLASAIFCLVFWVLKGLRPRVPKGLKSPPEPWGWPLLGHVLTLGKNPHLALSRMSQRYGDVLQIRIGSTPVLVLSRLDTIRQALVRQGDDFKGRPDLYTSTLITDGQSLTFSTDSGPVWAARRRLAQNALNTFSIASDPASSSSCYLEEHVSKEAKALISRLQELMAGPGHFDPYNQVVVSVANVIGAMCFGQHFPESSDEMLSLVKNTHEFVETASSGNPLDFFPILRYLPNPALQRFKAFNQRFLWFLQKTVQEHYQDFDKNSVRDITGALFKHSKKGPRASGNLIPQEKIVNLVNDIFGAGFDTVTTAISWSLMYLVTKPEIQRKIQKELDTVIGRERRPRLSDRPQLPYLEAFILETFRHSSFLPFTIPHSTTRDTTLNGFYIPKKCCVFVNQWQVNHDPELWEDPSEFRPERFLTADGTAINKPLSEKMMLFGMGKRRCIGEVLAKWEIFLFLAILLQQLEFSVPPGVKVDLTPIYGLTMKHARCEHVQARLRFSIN
# [16] = biological target: Cytochrome P450 2D6 (Homo sapiens, UniProt P10635); experiment: Inhibition of CYP2D6 (unknown origin) using dextromethorphan as substrate incubated for 10 mins in presence of NADPH by LC-MS/MS analysis; format: ADME
# Cytochrome P450 2D6, sequence (P10635 whole entry): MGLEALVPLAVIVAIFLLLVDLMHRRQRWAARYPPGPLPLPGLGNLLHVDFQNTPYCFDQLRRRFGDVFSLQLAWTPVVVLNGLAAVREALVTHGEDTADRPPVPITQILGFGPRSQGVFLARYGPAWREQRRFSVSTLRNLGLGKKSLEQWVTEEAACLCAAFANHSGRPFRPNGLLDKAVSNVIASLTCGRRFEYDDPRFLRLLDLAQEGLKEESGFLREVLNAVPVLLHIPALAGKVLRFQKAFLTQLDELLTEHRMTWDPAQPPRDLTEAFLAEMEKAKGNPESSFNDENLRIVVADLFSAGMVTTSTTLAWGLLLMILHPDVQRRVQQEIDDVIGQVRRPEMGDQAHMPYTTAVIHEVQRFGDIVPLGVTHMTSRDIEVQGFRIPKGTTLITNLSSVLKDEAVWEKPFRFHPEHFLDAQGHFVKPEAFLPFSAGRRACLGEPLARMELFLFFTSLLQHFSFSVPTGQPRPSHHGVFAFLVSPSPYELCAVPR
# [17] = biological target: Voltage-gated inwardly rectifying potassium channel KCNH2 (Homo sapiens, UniProt Q12809); experiment: Inhibition of human ERG expressed in CHO cells by Qpatch clamp method; format: toxicity, cell-based
# Voltage-gated inwardly rectifying potassium channel KCNH2, sequence (Q12809 whole entry): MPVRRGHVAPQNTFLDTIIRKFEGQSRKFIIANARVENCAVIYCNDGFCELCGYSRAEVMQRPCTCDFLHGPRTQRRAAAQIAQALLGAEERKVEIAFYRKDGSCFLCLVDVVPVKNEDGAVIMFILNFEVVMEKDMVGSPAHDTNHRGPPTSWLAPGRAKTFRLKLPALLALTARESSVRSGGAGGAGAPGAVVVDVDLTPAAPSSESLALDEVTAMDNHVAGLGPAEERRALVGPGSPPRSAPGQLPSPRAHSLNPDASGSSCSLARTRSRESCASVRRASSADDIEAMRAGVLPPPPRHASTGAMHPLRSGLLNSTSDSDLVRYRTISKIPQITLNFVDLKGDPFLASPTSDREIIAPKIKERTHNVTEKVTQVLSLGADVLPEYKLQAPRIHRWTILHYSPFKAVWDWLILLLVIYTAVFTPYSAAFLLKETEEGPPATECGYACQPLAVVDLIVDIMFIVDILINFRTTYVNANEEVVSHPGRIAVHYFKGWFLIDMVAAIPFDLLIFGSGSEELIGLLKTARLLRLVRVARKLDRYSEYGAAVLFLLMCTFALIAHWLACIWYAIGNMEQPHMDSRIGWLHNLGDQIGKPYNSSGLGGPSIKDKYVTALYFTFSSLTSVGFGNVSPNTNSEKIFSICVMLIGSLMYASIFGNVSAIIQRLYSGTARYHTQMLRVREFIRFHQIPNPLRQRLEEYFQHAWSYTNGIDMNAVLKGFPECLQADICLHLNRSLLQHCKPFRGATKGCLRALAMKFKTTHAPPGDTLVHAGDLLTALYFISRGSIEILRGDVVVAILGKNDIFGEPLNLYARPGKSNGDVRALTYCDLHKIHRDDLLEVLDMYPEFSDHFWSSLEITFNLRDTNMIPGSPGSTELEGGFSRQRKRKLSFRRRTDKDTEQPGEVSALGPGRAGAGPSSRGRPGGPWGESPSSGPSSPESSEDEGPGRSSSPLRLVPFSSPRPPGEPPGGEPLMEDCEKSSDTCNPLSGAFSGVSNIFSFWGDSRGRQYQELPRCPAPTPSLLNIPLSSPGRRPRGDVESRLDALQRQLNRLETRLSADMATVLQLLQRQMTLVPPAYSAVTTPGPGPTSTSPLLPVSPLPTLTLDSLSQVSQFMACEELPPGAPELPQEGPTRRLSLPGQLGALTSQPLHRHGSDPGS
# [18] = Unbound plasma protein binding in human incubated for 24 hrs by HPLC based equilibrium dialysis method; format: ADME, cell-free
# [19] = Cmax in C57BL/6 mouse plasma at 10 mg/kg, po measured upto 24 hrs by LC-MS/MS analysis; format: ADME, organism-based
# [20] = Tmax in C57BL/6 mouse brain at 10 mg/kg, po measured upto 24 hrs by LC-MS/MS analysis; format: ADME, organism-based
# [21] = system: Mus musculus; experiment: Anti-alzheimer activity against 8 month old 3xTg mouse model assessed as improved learning ability at 2 to 10 mg/kg, po administered 4 times per week for 4 weeks; format: functional, organism-based; details: dose 2-10 mg/kg
# [22] = system: Mus musculus; experiment: Anti-alzheimer activity against 5 month old APP/PS1 transgenic mouse model assessed as decrease in anxiety level at 2 to 10 mg/kg, po administered 4 times per week for 4 weeks; format: functional, organism-based; details: dose 2-10 mg/kg
# [23] = system: Mus musculus; experiment: Anti-alzheimer activity against 5 month old APP/PS1 transgenic mouse model assessed as decrease in restlessness at 2 to 10 mg/kg, po administered 4 times per week for 4 weeks; format: functional, organism-based; details: dose 2-10 mg/kg
# [24] = system: Mus musculus; experiment: Anti-alzheimer activity against 8 month old 3xTg mouse model assessed as decrease in restlessness at 2 to 10 mg/kg, po administered 4 times per week for 4 weeks; format: functional, organism-based; details: dose 2-10 mg/kg
# [25] = system: Mus musculus; experiment: Anti-alzheimer activity against 5 month old APP/PS1 transgenic mouse model assessed as increase in searching frequency towards annulus at 10 mg/kg, po administered 4 times per week for 4 weeks; format: functional, organism-based
# [26] = system: Mus musculus; experiment: Anti-alzheimer activity against 5 month old APP/PS1 transgenic mouse model assessed as improved spatial preference towards annulus at 10 mg/kg, po administered 4 times per week for 4 weeks; format: functional, organism-based
# [27] = system: Mus musculus; experiment: Anti-alzheimer activity against 8 month old 3xTg mouse model assessed as improved cognitive ability at 2 mg/kg, po administered 4 times per week for 4 weeks; format: functional, organism-based
# [28] = system: Mus musculus; experiment: Downregulation of RIPK1 phosphorylation in 3xTg mouse hippocampus at 2 to 10 mg/kg, po by immunohistochemistry analysis; format: functional, organism-based; details: dose 2-10 mg/kg
# [29] = system: Mus musculus; experiment: Anti-alzheimer activity against 8 month old 3xTg mouse model assessed as reduction in p-Tau181 content at 2 to 10 mg/kg, po; format: functional, organism-based; details: dose 2-10 mg/kg
# [30] = system: Mus musculus; experiment: Anti-alzheimer activity against 8 month old 3xTg mouse model assessed as reduction in Tau aggregation at 2 to 10 mg/kg, po; format: functional, organism-based; details: dose 2-10 mg/kg
# [31] = system: Mus musculus; experiment: Anti-alzheimer activity against 8 month old 3xTg mouse model assessed as increase in beta-III tubulin expression at 10 mg/kg, po; format: functional, organism-based
# ALK tyrosine kinase receptor (Homo sapiens, UniProt Q9UM73, E1167A), sequence (Q9UM73 19-1620 E1167A limits assumed): as the sequence (Q9UM73 19-1620 limits assumed) above, with E1149A counted along it
compound,measurement,setting,value
Cc1cc(F)cc(Nc2ncc(Nc3ccc(SC(F)(F)F)cc3)cc2C(N)=O)c1,IC50,[1],4.43 µM
same,inhibition,[2],Active
same,inhibition,[3],Active
same,Activity,[4],Active
same,Activity,[5],Active
same,inhibition,[6],Dose-dependent-effect
same,inhibition,[7],Dose-dependent-effect
same,Activity,[8],inactive
same,Activity,[9],100%
same,Activity,[10],inactive
same,Activity,[11],inactive
same,Activity,[12],inactive
same,Activity,[13],inactive
same,Activity,[14],inactive
same,IC50,[15],> 10 µM
same,IC50,[16],> 10 µM
same,IC50,[17],> 20 µM
same,Fu,[18],0.1%
same,Cmax,[19],1180 ng/mL
same,Tmax,[20],5.97 h
same,Activity,[21],Active
same,Activity,[22],Active
same,Activity,[23],Active
same,Activity,[24],Active
same,Activity,[25],Active
same,Activity,[26],Active
same,Activity,[27],Active; Activity More Potent Than Nec-1
same,Activity,[28],Active; Activity More Potent Than Nec-1
same,Activity,[29],Active
same,Activity,[30],Active
same,Activity,[31],Active
